Values quoted from earlier work in publication PMC10931745 (International Journal of Molecular Sciences, 2024).

Columns and labels:
[1] = system: Escherichia coli (ATCC 25922); parameters: method as in PMID 36179970; settings: literature data ref 74; cited from earlier work
[2] = system: Staphylococcus aureus (ATCC 23235); parameters: method as in doi:10.1186/s40543-021-00294-2; settings: literature data ref 75; cited from earlier work
[3] = system: Enterococcus faecalis (ATCC 19433); parameters: method as in PMID 24586598; settings: literature data ref 78; cited from earlier work
[4] = system: Klebsiella pneumoniae (ATCC 13883); parameters: method as in PMID 35203751; settings: literature data ref 77; cited from earlier work
[5] = system: Staphylococcus epidermidis (ATCC 14990); parameters: method as in PMID 16556639; settings: literature data ref 76; cited from earlier work

| Compound | M.B.C. E. coli [1] [µg/mL] | M.I.C. E. coli [1] [µg/mL] | M.B.C. S. aureus [2] | M.I.C. S. aureus [2] | M.B.C. E. faecalis [3] [µg/mL] | M.I.C. E. faecalis [3] [µg/mL] | M.B.C. K. pneumoniae [4] [µg/mL] | M.I.C. K. pneumoniae [4] [µg/mL] | M.B.C. S. epidermidis [5] [µg/mL] | M.I.C. S. epidermidis [5] [µg/mL] |
| --- | --- | --- | --- | --- | --- | --- | --- | --- | --- | --- |
| CC1(C)S[C@@H]2[C@H](NC(=O)[C@H](N)c3ccccc3)C(=O)N2[C@H]1C(=O)O [Ampicillin] | 4 | 2 | 1/(1) [75] µg/mL | 1/(1) [75] µg/mL | – | – | – | – | – | – |
| CNC(C)C1CCC(N)C(OC2C(N)CC(N)C(OC3OCC(C)(O)C(NC)C3O)C2O)O1 (stereo not shown) [Gentamicin] | – | – | – | – | 128 | 4 | > 40 | 1.25 | 16 to 64 | 8 to 32 |
